Measured values reported in patent publication US20170320837A1, “METHOD FOR TREATING INFLAMMATORY DISORDERS” (Synta Pharmaceuticals Corp., priority 2006, published 2017).
“Also recorded” adds a separate entry of the source.

Columns and labels:
[1] = target: T1, GR (human recombinant) (Homo sapiens, UniProt P04150); assay: GR competitive assay, fluorescence polarization with Fluormone GS1; type: binding; details: tested up to 10 uM
T1 construct: purchased Invitrogen P2816
T1 sequence (P04150 1-777): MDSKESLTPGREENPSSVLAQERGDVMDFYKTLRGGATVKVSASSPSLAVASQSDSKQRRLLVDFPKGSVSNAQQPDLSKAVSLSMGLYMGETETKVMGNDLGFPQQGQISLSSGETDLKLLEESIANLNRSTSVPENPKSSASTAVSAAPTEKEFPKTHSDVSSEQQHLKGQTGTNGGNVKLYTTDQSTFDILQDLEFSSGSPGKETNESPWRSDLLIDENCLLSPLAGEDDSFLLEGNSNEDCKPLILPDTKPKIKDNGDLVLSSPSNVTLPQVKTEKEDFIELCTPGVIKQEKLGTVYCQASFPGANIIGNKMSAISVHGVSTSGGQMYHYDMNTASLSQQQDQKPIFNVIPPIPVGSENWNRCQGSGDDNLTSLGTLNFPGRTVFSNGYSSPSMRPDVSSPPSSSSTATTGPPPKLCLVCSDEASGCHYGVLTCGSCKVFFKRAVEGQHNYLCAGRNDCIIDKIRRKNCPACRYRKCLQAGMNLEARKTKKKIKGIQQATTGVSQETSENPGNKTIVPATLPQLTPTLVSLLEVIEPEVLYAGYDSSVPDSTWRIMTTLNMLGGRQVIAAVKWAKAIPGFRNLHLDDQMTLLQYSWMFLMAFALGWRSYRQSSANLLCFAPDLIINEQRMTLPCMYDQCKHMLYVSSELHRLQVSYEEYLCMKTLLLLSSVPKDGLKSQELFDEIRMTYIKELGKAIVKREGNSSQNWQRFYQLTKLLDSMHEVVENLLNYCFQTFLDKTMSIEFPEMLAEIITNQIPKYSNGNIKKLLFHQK
Experimental: To determine whether the compounds of the invention bind directly to the glucocorticoid receptor, GR competitive assay was performed using a kit from Invitrogen (Cat #P2816). GR (human recombinant) was added to a fluorescent glucocorticoid (Fluormone™ GS1) ligand with a test compound at various concentrations (a serial dilution of the test compound was done on a 96-well plate) and incubated for 2-4 hours in the dark. […] The shift in polarization value in the presence of a test compound was used to determine relative affinity of test compounds for glucocorticoid receptors. The buffer plus Fluormone™ GS1 and glucocorticoid receptor in the absent of s test compound was used as negative control presenting 0% competition. […] The IC50 was calculated based on the inhibition rate of binding activity of the testing compound.

[2] = target: T2, glucocorticoid receptors (Homo sapiens, UniProt P04150); assay: Competitive binding assay with tritium labeled dexamethason in Hela S3 cells (legend of FIG. 3)
T2 construct: endogenous in cells; host or cells: HeLa S3
T2 sequence (P04150 1-777): T1 sequence (P04150 1-777)

[3] = test system: human PBMCs; assay: Production of inflammatory cytokines in stimulated human PBMCs; type: cell-based; details: IFN-γ primed PBMCs stimulated with LPS or SAC, 16-18 hrs
Experimental: Human PBMC were isolated using Ficoll 400 and diatrizoate sodium (density 1.077 g/ml) solution and purified with RosetteSep (StemCell Technologies). The PBMCs were primed with human IFN-γ (800 U/ml, Pierce Biotechnology #R-IFNG-50), seeded at 0.5×10^6/100 μL/well in 96-well U-bottom plate with culture medium (RPMI 1640, 10% FBS, 1% Pen/Strep), and incubated in 37° C. for overnight. […] About 180 ul/well of supernatant was collected and measured using ELISA kit or Bio-plex (Bio-Rad) to determine the levels of cytokine production. The cell survival was determined using Cell Counting Kit-8 (Dojindo Molecular Technologies, Inc.). […]

[4] = test system: glucocorticoid receptor; assay: Glucocorticoid receptor levels in rat PBMCs, immunoblot; type: cell-based; details: rat PBMCs, 0, 1, 5, 25, or 100 nM, 16 hours
Experimental: (§1) The whole blood samples from healthy human volunteer and male SD rat were collected and the PBMCs were isolated immediately as follows. 5 ml of whole blood was diluted with an equal volume of sterile 1× PBS. The diluted blood was overlayed carefully into a sterile centrifuge tube without disturbing the bottom layer that containing 5 ml of Ficoll-paque plus density gradient solution. The layered blood was centrifuged at 1500×g for 30 minutes at room temperature. The middle thin layer containing PBMCs was carefully removed, transferred to another sterile centrifuge tube, and washed twice with PBS to remove […]. Isolated rat and human PBMCs were cultured in 10% fetal bovine serum/DMEM.
(§2) The rat and human PBMCs were treated with DMSO (control), Compound 226, Compound 287, or 17-DMAG at concentrations of 0, 1, 5, 25, or 100 nM (in DMSO) for 16 hours. The cells were then collected and rinsed in ice-cold PBS and stored in liquid nitrogen until further analysis.
(§3) PBMC were prepared in Western lysis buffer (10 mmol/L HEPES, 42 mmol/L KCl, 5 mmol/L MgCl2, 0.1 mmol/L EDTA, 0.1 mmol/L EGTA, 1 mmol/L DTT, 1% Triton X-100, freshly supplemented with 1× protease inhibitor cocktail from Pierce, Rockford, Ill.). Lysate protein concentrations were quantified by bicinchoninic acid assay (Pierce) and normalized. Equal amounts of protein were loaded onto 10% NuPAGE Bis-Tris Gels (Invitrogen) and subsequently transferred onto polyvinylidene difluoride membranes. The membranes were blocked in 5% milk in TBST. Primary antibody of glucocorticod receptor from Santa Cruz Biotechnology, Inc. was added and incubated at room temperature for 1 hour with shaking. The blots were washed extensively in TBST before secondary antibodies were added for overnight incubation at 4° C. with gentle shaking. The blots were again washed extensively and developed with SuperSignal West Femto substrate (Pierce). The immunoblot analysis was performed to measure the level of total GRs by Quantity One software from Bio-Rad.

[5] = test system: glucocorticoid receptor; assay: Glucocorticoid receptor levels in human PBMCs, immunoblot (Example 114); type: cell-based; details: human PBMCs, 0, 1, 5, 25, or 100 nM, 16 hours
Experimental: as §1, §2, §3

[6] = test system: glucocorticoid receptor; assay: Glucocorticoid receptor levels in human PBMCs, renal cells and cancer cell lines, immunoblot (Example 115); type: cell-based
Experimental: Normal human renal proximal tubule epithelial cells and tumor cell lines of MV-4-11, Kasumi-1, and Hela were obtained from Cambrex Bioproducts and American Type Culture Collection, respectively. Cells were cultured with 10% fetal bovine serum/DMEM.
The whole blood samples from healthy human volunteer were collected and the PBMCs were isolated immediately as described in Example 116. Isolated human PBMCs were cultured in 10% fetal bovine serum/DMEM.
as §2, with “Human PBMCs, kasumi-1, My-4-11, Hela,” for “The rat”, “renal proximal tubule epithelial cells” for “PBMCs”, “287,” for “287, or”, “0,” for “0, 1,”
as §3, with “PBMC, renal and tumor cell pellets” for “PBMC”, “0.1. mmol/LEGTA,” for “0.1 mmol/L EGTA,”, “glucocorticoid” for “glucocorticod”, “(Pierce).” for “(Pierce). The immunoblot analysis was performed to measure the level of total GRs by Quantity One software from Bio-Rad.”

[7] = test system: glucocorticoid receptor; assay: Glucocorticoid receptor levels in PBMCs of rats after four days of intravenous dosing, immunoblot; type: in vivo, Sprague-Dawley (SD) rats
Experimental: The test compounds were administered daily intravenously via tail vein for four days. […] All rats were sacrificed at the study day 5. About 1-2 mL of blood samples were collected per animal. The blood samples were then pulled together as a group for PBMC isolation.

IC50 [1]: > 10 µM
Compound: CC(C)c1cc(-c2nnc(O)n2-c2ccc3c(ccn3C)c2)c(O)cc1O [Compound 226, 3-(2,4-dihydroxy-5-isopropyl-phenyl)-4-(1-methyl-indol-5-yl)-5-hydroxy-[1,2,4]triazole]
displacement of tritium labeled dexamethason [2]: did not displace the tritium labeled dexamethason | inhibition of the production of proinflammatory cytokines [3]: more broadly inhibits the production of proinflammatory cytokines than dexamethasone or 17-DMAG | expression of glucocorticoid receptors [4]: dose dependent decrease; also recorded: decreased the expression of glucocorticoid receptor in a dose dependent manner | expression of glucocorticoid receptors [5]: dose dependent decrease; also recorded: decreased the expression of glucocorticoid receptor in a dose dependent manner | suppression of glucocorticoid receptors, cancer cells compared with normal cells [6]: more pronounced in cancer cell than in normal cells | expression of glucocorticoid receptors ([6]; HeLa cells, 0, 5, 25, or 100 nM, 16 hrs): dose dependent decrease | expression of glucocorticoid receptors ([6]; Kasumi-1 AML cancer cells, 0, 5, 25, or 100 nM, 16 hrs): dose dependent decrease | expression of glucocorticoid receptors ([6]; MV-4-11 AML cancer cells, 0, 5, 25, or 100 nM, 16 hrs): dose dependent decrease | expression of glucocorticoid receptors ([6]; cancer cells as well as normal PBMCs and renal cells): suppress the expression of glucocorticoid receptors | expression of glucocorticoid receptors ([6]; human PBMCs, 0, 5, 25, or 100 nM, 16 hrs): dose dependent decrease | expression of glucocorticoid receptors ([6]; human renal cells, 0, 5, 25, or 100 nM, 16 hrs): dose dependent decrease | size of the decrease of GR expression compared with the other treatments ([7]; 50 mg/kg daily intravenously for four days): most significant | expression of glucocorticoid receptor (GR) in isolated PBMC compared with vehicle ([7]; daily intravenously for four days, 17-DMAG 6 mg/kg, Paclitaxel 5 mg/kg, Compound 264 80 mg/kg, Compound 226 50 mg/kg): decreased
